Publication PMC8945229, “Development and Biological Characterization of a Novel Selective TrkA Agonist with Neuroprotective Properties against Amyloid Toxicity” (Biomedicines, 2022)

What was measured:
[1] = Metabolic stability in human liver microsomes; format: in vitro ADME; conditions: 1 μM, 0.5 mg/mL microsomes, 1 mM NADPH, t = 60 min
Procedure: Human liver microsome (pooled) concentration was set at 0.5 mg/mL and 1 mM NADPH served as a cofactor for oxidative (CYP-mediated) metabolic stability profiling. ENT-A013 was tested at 1 μM. Incubation conditions ensured linear metabolite formation with respect to reaction time and protein concentration. Incubations took place in triplicates at 37 °C in the presence of negative and positive controls (low vs. rapid clearance). Each reaction was terminated after the specified incubation period (60 min) and plates were read on Lionheart FX (BioTek, Winooski, VT, USA). Residual (%) of time zero (ENT-A013 depletion) was determined.

[2] = system: Primary hippocampal neurons; assay: TUNEL assay in primary hippocampal neurons treated with oligomeric Aβ; format: cell-based, mouse; conditions: 5 μM oligomeric Aβ, 500 nM every 24 h, 48 h
Procedure: Primary hippocampal neurons were isolated from E17.5 mouse embryos (C57BL/6J, The Jackson Laboratory, Bar Harbor, ME, USA) as previously described and cultured with Neurobasal medium containing 2% B27, 1X GlutaMax, 10 mM HEPES and 1% PenStrep. Cells were maintained in a humified incubator at 37 °C and 5% CO2. For TUNEL assay, cells were left in culture for 16–18 days and then treated with 5 μM oligomeric Aβ along with ENT-A013 (500 nM, every 24 h) for 48 h. Cells were then fixed with 4% PFA and labelled with TUNEL (F. Hoffmann–La Roche Ltd., Basel, Switzerland, cat# 11684795910) following the manufacturer’s protocol. Subsequently, cells were immunostained against Tuj1 and imaged with confocal microscopy. For synaptic plasticity assay, cells were left in culture for 16–18 days and then treated with 5 μM oligomeric Aβ along with ENT-A013 (500 nM) for 4 h. Cells were then fixed with 4% PFA and immunostained against Tuj1 and Synaptophysin (1:1000, PA1-1043, Invitrogen, Waltham, MA, USA), anti-mouse Alexa fluor 488 (1:1000, A-11029, Invitrogen, Waltham, MA, USA) and anti-rabbit Alexa fluor 546 (1:1000, A10040, Invitrogen, Waltham, MA, USA). Images were acquired using confocal microscopy and the total area of synaptophysin positive puncta was measured and normalized to Tuj1 total area. […]

[3] = system: Primary Dorsal Root Ganglia (DRG) neurons; assay: TUNEL assay in primary DRG neurons upon NGF withdrawal; format: cell-based, mouse; conditions: 500 nM every 24 h, 48 h, NGF-neutralizing antibody
Procedure: Primary Dorsal Root Ganglia (DRG) neurons were isolated from P0-P1 mouse pups (C57BL/6J, The Jackson Laboratory, Bar Harbor, ME, USA) as described previously and cultured with Neurobasal medium (21103049 Gibco, Grand Island, NY, USA) containing 2% B27 (17504044, Gibco, Grand Island, NY, USA), 100 ng/mL NGF (N-100, Alomone Labs, Jerusalem, Israel), 1X GlutaMax (35050061, Gibco, Grand Island, NY, USA), 10 mM HEPES (15630080, Gibco, Grand Island, NY, USA), 1% Penicillin/Streptomycin (15070063, Gibco, Grand Island, NY, USA) and 10 μM 5-Fluoro-2′-deoxyuridine (343333, Calbiochem, Darmstadt, Germany). For TUNEL assay, cells were cultured for 14 days in vitro and then the medium was deprived of NGF before adding ENT-A013 (500 nM, every 24 h) along with NGF-neutralizing antibody (N8773, 1:500, Sigma-Aldrich, St. Louis, MO, USA). Cells were then incubated for 48 h before being fixed with 4% PFA and labelled with TUNEL (11684795910, F. Hoffmann–La Roche Ltd., Basel, Switzerland) following the manufacturer’s protocol. Subsequently, cells were immunostained against Tuj1 (1:2000, 801201, Biolegend, Inc., San Diego, CA, USA) and anti-mouse Cy3 (1:1000, Invitrogen, A10521, Waltham, MA, USA) and imaged with a Leica SP8 confocal microscope. […] Cells were then imaged by confocal microscopy and neurite length was measured using Fiji software (NIH, Bethesda, Maryland, USA).

SMILES: CC12CCC(O)CC1=CCC1C2CCC2(C)C1CCC21CC1C=CBr [ENT-A013, (2′R,3S,17S)-2′-(2-Bromovinyl)-5-Androstene-17,1′-Cyclopropan-3-ol]
- residual of time zero [1]: 93%
- apoptosis (TUNEL) [2]: 29.8% ± 2.5%
- NGF deprivation-induced apoptosis (TUNEL, in words) [3]: significantly reverse the NGF deprivation-induced apoptosis
